From US5808124A, “O- or S-substituted dihydronaphthalene derivatives having retinoid and/or retinoid antagonist-like biological activity” (Allergan, priority 1996, dated 1998)

What follows are compounds tested on ornithine decarboxylase (ODC) (assay: ODC assay: inhibition of TPA induction of ornithine decarboxylase (ODC) activity). Conditions: 60% inhibition in the ODC assay (TPA induction).
Format: biochemical
Excerpt: A classic measure of retinoic acid activity involves measuring the effects of retinoic acid on ornithine decarboxylase. The original work on the correlation between retinoic acid and decrease in cell proliferation was done by Verma & Boutwell, Cancer Research, 1977, 37,2196-2201. That reference discloses that ornithine decarboxylase (ODC) activity increased precedent to polyamine biosynthesis. It has been established elsewhere that increases in polyamine synthesis can be correlated or associated with cellular proliferation. Thus, if ODC activity could be inhibited, cell hyperproliferation could be modulated. Although all cases for ODC activity increases are unknown, it is known that 12-0-tetradecanoylphorbol-13-acetate (TPA) induces ODC activity. Retinoic acid inhibits this induction of ODC activity by TPA. […] Activity of exemplary compounds of the present invention in the above-described ODC assay is disclosed in Table 1 which provides the IC60 concentration for the respective exemplary compound. ("IC60 " is that concentration of the test compound which causes 60% inhibition in the ODC assay. By analogy, "IC80, for example, is that concentration of the test compound which causes 80% inhibition in the ODC assay.)

Row | SMILES | IC60 [nmols]
1 | CCOC(=O)c1ccc(/N=N/c2ccc3c(c2)C(OCOC)CCC3(C)C)cc1 (racemic) [Compound D6, (+/-) ethyl 4-[(5,5-dimethyl-8-(methoxymethyloxy)-5,6,7,8-tetrahydronaphthalen-2-yl)azo]benzoate] | 1.9
2 | CCOC(=O)c1ccc(/C=C/c2ccc3c(c2)C2(CCC3(C)C)SCCCS2)cc1 [Compound A23] | 43.7
3 | CCO/N=C1\CCC(C)(C)c2ccc(/C=C/c3ccc(C(=O)OCC)cc3)cc21 [Compound A5, ethyl (E)-4-[2-(5,5-dimethyl-5,6-dihydro-8(7H)-anti-(O-ethyl oxime)-naphthalen-2-yl)ethenyl]-benzoate] | 10.3
4 | CCO/N=C1\CCC(C)(C)c2ccc(/C(C)=C/C=C/C(C)=C/C(=O)OCC)cc21 [Compound C22b, Ethyl 7-[4,4-dimethyl-3,4-dihydro-1(2H)-anti-(O-ethyl oxime)-naphth-7-yl]3,7-dimethyl-hepta-2(E),4(E),6(E)-trienoate] | 10

Same assay, conditions: 80% inhibition in the ODC assay (TPA induction); printed in the IC60 column marked (IC80)

Row | SMILES | IC80 [nmols]
5 | CC1(C)CC=C(c2cccs2)c2ccc(C(=O)/C=C/c3ccc(C(=O)O)cc3)cc21 [Compound D34, 4-[3-oxo-3-(7,8-dihydro-5-(2-thienyl)-8.8-dimethyl-2-naphthalenyl) - 1-propenyl]-benzoic acid] | 4.3
6 | CCOC(=O)c1ccc(/C=C/c2ccc3c(c2)C(Sc2ccccc2)=CCC3(C)C)cc1 [Compound A16, ethyl (E)-4-[2-(5,6-dihydro-5,5-dimethyl-8-(phenylthio)-naphthalen-2-yl)ethenyl]benzoate] | 4.3
